What was measured:
[1] = cited from earlier work
[2] = serum hormone levels in post-menopausal breast cancer patients; assay type: in vivo, post-menopausal women; conditions: versus pre-therapy, FIG. 2
Excerpt: Five post-menopausal women having similar patient socio-demographic characteristics and ranging in age from 49 years to 56 years (median age 54) were selected for study. Each woman had been diagnosed with node-negative estrogen receptor and PR (Progesterone Receptor) positive BCa (Breast cancer), with tumor sizes ranging from 1.9 cm to 2.3 cm (median tumor size of 2.1 cm) and selected post-surgery (e.g., mastectomy, lumpectomy, or quadrantectomy for primary breast cancer) and post-chemotherapy. None had been subjected to previous attempts at hormone replacement therapy.
(§1) Each woman selected was subjected to four weeks of aromatase inhibitor therapy (anastrozole 1 mg (ARIMIDEX®) orally as a tablet once a day), and thereafter to an additional eight weeks of the same aromatase inhibitor therapy in combination with the oral administration of 40 mg of testosterone undecanoate as a tablet once a day. During this study, side effects associated with aromatase inhibitor treatment were measured at three separate times: prior to the first week of aromatase inhibitor therapy, following the fourth week of aromatase inhibitor therapy but before administration of testosterone undecanoate was begun, and following the eighth week of combined aromatase inhibitor and androgen replacement therapy.
The y axis is picomoles/L of serum.

[3] = tested on: post-menopausal patients; conditions: in vivo
Excerpt: The Western Ontario and McMaster Universities (WOMAC) Osteoarthritis Index™ consists of three VAS, one each pertaining to pain, joint stiffness and physical function. This then gives the WOMAC™ osteoarthritis index composite score.
Five post-menopausal women having similar patient socio-demographic characteristics and ranging in age from 49 years to 56 years (median age 54) were selected for study. […]
as §1
The y axis is a visual analogue pain scale. Specifically, the y axis indicates a percentage score of a subjective quantification of pain measured out of 100.

[4] = tested on: post-menopausal patients; parameters: species or system post-menopausal women; conditions: in vivo
Excerpt: An endocrine subscale (FACT-ES) to accompany a well-validated QOL measure called the FACT-B (Brady, M J., et al., Journal of Clinical. Oncology., Vol. 15, No. 3 (March 1997) pp. 974-986, which is incorporated in its entirety) was developed specifically for use in trials using drugs likely to cause endocrine related symptoms. See Fallowfield, L J, et al., Breast Cancer Research and Treatment, Vol. 55, No. 2, 1999, pp. 189-199, which is incorporated herein by reference in its entirety. Also, FACT-ES is a validated questionnaire designed to measure quality of life of women with breast cancer who are being treated with endocrine therapies. It consists of the FACT-B questionnaire plus an additional endocrine subscale. FACT-B (breast) consists of the FACT-G (general) QOL tool for cancer patients plus the Breast Cancer subscale. FACT-ES has been developed to measure QOL in patients receiving endocrine therapy for breast cancer. This instrument (FACT-ES) should, therefore, be sensitive to QOL changes in patients in this trial. […]
At the three assessment times during the study, the quality of life for each patient was assessed using standard Functional Assessment of Cancer Therapy-Endocrine Symptoms (FACT-ES) questionnaire (See FIG. 8), which questionnaire is a standard method for determining the occurrence and prominence of treatment-related symptoms and side-effects in breast cancer patients. […]

[5] = tested on: post-menopausal patients; conditions: in vivo; remark: listed apart in the source
Excerpt: Another embodiment of this invention involves measuring cognitive function, including processing speed, working memory, visual memory, and verbal memory.
Five post-menopausal women having similar patient socio-demographic characteristics and ranging in age from 49 years to 56 years (median age 54) were selected for study. Each woman had been diagnosed with node-negative estrogen receptor and PR (Progesterone Receptor) positive BCa (Breast cancer), with tumor sizes ranging from 1.9 cm to 2.3 cm (median tumor size of 2.1 cm) and selected post-surgery (e.g., mastectomy, lumpectomy, or quadrantectomy for primary breast cancer) and post-chemotherapy. […]
Each woman selected was subjected to four weeks of aromatase inhibitor therapy (anastrozole 1 mg (ARIMIDEX®) orally as a tablet once a day), and thereafter to an additional eight weeks of the same aromatase inhibitor therapy in combination with the oral administration of 40 mg of testosterone undecanoate as a tablet once a day. During this study, side effects associated with aromatase inhibitor treatment were measured at three separate times: prior to the first week of aromatase inhibitor therapy, following the fourth week of aromatase inhibitor therapy but before administration of testosterone undecanoate was begun, and following the eighth week of combined aromatase inhibitor and androgen replacement therapy. […]

[6] = cited from earlier work; remark: listed apart in the source

CCCCCCCCCCC(=O)O[C@H]1CC[C@H]2[C@@H]3CCC4=CC(=O)CC[C@]4(C)[C@H]3CC[C@]12C [testosterone undecanoate]
oral bioavailability ([1]; by-passes the liver via the lymphatic system): orally bioavailable

CC(C)(C#N)c1cc(Cn2cncn2)cc(C(C)(C)C#N)c1 [Al only, anastrozole]
average estradiol (E2) serum level ([2]; following the fourth week of aromatase inhibitor therapy (anastrozole 1 mg once a day)): drops significantly | remainder of the serum hormone levels (T, FreeT, DHT) ([2]; following the fourth week of aromatase inhibitor therapy): relatively unchanged | reported arthralgia symptoms [3]: elevated levels of arthralgia | quality of life as measured by FACT-ES questionnaires [4]: decreased | cognitive function scores (processing speed, working memory, visual memory, verbal memory; mean Z score) [5]: decreased across all four ability types

C[C@]12CC[C@H]3[C@@H](CCC4=CC(=O)CC[C@@]43C)[C@@H]1CC[C@@H]2O [testosterone]
testosterone broken down in the liver as it is absorbed from the gut ([1]; oral delivery): 80-90% | testosterone broken down in the intestines by aromatase and other metabolic pathways ([1]; oral): approximately 85%

CCC1(c2ccc(N)cc2)CCC(=O)NC1=O (stereo not shown) [aminoglutethimide]
tolerability ([6]; Cash, Brough et al 1967): poorly tolerated | adrenal suppression ([6]; limited the use of the drug): marked adrenal suppression
